In series [1] the test system is TGF-β1 mRNA. Nature of the series: Dermal fibroblast TGF-β1 mRNA levels by quantitative RT-PCR. It is filed as cell-based, human. Here is the method: (§1) Human dermal fibroblasts were explanted from the 4 mm punch biopsy specimens of normal skin. Fibroblasts used in the study were cultured at 37° C. in 95% air; 5% CO2 at 100% relative humidity, in phenol red-free DMEM (Gibco), 100 U/ml penicillin, […], 1 mM sodium pyruvate, 2 mM L-glutamine, non-essential amino acids and charcoal-stripped 10% FCS (Gibco, UK) (to remove endogenous steroids).
(§2) Cultured cells at passage 3-5 were seeded overnight in 24-well plates at a density of 2×10^5 cells per well in serum free media. The following morning oestrogen or progesterone (made soluble by the incorporation of the carrier cyclodextrin; Sigma, Poole), ranging from 1 pM to 1 mM doses, were added to the medium for 24 hrs. All samples were assessed in triplicate. The media was removed after the 24 hr incubation. 1 mg/ml of aprotinin, leupeptin and pepstatin A was then added to the media which was used immediately in a TGF-β assay (see below). Controls included cyclodextrin at the appropriate concentration, and serum-free medium alone.
Quantitative RT-PCR was used to determine the steady-state levels of TGF-β1 mRNA in the acute wound and in 10^5 cells from the fibroblast in vitro studies (2.1.5) Cellular RNA was isolated from specimens using the method of Chomcynski and Sacchi (Anal, Biochem, 162 p156-159 (1987)). Purity of extraction was assessed using the A260/280 ratio spectrophotometrically, which in all cases was above 1.75. […] Quantitative RT-PCR was performed as described by Tarnuzzer et al. (Biotechniques 20 p670-674 (1996)) Briefly, the reverse transcriptase reaction was carried out using 8 decreasing dilutions of template with 1 μg of authentic cellular RNA. β-actin was used as a positive control. PCR reactions were carried out on the reverse transcription reaction. Electrophoresis was then carried out on a 2% agarose gel containing […] ethidium bromide at 100 v for 1 hr using an Electro 4 tank (Hybaid, Teddington, UK) and photographed using a dual intensity transilluminator (Genetic Research instrumentation, Dunmow (UK) with a Polaroid MP 4+ camera and 665 Polaroid Black and White film, Photographic images were captured using a PC Image Software system (Foster Finley, Newcastle, UK) on a 486 DX2 Dan computer (Dan, UK) and a CCD camera (Swift, UK). The band intensities were determined by image analysis using a Macintosh computer and NIH software programme. Band intensity values were normalised based on the molecular weights of the products. The log of the ratio of band intensities within each lane was plotted against the log of the copy number of template added per reaction. Quantities of target messages were determined where the ratio of template and target band intensities were equal to 1. Copy numbers were expressed per total RNA (for wound tissue) or expressed per cell (for in vitro studies). The latter were calculated by assuming 26 pg RNA/cell.

Series [2] relates to TGF-β1 secreted by dermal fibroblasts. Nature of the series: TGF-β levels in fibroblast conditioned media, mink lung cell growth inhibition assay. The following applies: for TGF-beta LEVELS: 24 hr; for active TGF-β1 (non-heat-activated samples): fibroblast conditioned media after 24 hr treatment, compared to control; for FOLD INDUCTION of TGF-beta levels: relative to control. The class given is cell-based, human. Here is the method:
as §1, §2
TGF-β levels in the media (2.1.5.2) were determined using a mink lung growth inhibition assay as described by Danielpour et al, (J Cell Physiol, 138 p79-86) Briefly, mink lung epithelial cells (MLECs) were maintained in DMEM and 10% FCS at 37° C. in 10% CO2. Subconfluent cells were trypsinized, resuspended in 10% FCS, pelleted at 500 g for 5 min, washed with 10 ml of assay buffer (DMEM, 2% FCS, 10 mM HEPES pH 7.4, penicillin 25 U/ml, streptomycin 25 μg/ml), resuspended in assay buffer and seeded at 10^5 cells/well in a 24-well Costar plate. After 1 hr conditioned media or control media (with varying concentrations of hormones ranging from 1 pM-1 mM or cyclodextrin alone) were added, 22 hrs later cells were pulsed with [^3H] thymidine (0.5 μCi/well) for 2 hrs at 37° C., and the procedure described above for the extraction and measurement of radioactivity followed (2.1.5.3). A standard curve was produced using 10-1000 pg/ml TGF-β standard (R&D) from which inhibition data could be converted to pg/ml. Results were presented as pg/ml TGF-β/10^5 cells (relative to control valves for each individual hormone concentration).

Where [3] appears, read: OLD person (2A or 2B) fibroblasts, mM dose.
Setting [4] is: OLD person (2A or 2B) fibroblasts, nM dose.
Where [5] appears, read: OLD person (2A or 2B) fibroblasts, pM dose.
[6] abbreviates: OLD person (2A or 2B) fibroblasts, μM dose.
Setting [7] is: YOUNG person (2C) fibroblasts, mM dose.
The mark [8] stands for this setting: YOUNG person (2C) fibroblasts, nM dose.
[9] abbreviates: YOUNG person (2C) fibroblasts, pM dose.
Where [10] appears, read: YOUNG person (2C) fibroblasts, μM dose.

Marks after values point to notes of the source that are not given here.

The text below walks through data of patent US6696433B2, “Use of sex steroids function modulators to treat wounds and fibrotic disorders” (Renovo Limited, priority 1996, dated 2004).

Regarding `C[C@]12CC[C@@H]3c4ccc(O)cc4CC[C@H]3[C@@H]1CC[C@@H]2O` [Oestrogen], the “TGF-beta mRNA LEVELS” value turned out to be 990 ± 325 copies/cell in series [1] (setting [3]); 1100 ± 370 copies/cell in series [1] (setting [4]); 1155 ± 215 copies/cell in series [1] (setting [5]); 1100 ± 235 copies/cell in series [1] (setting [6]); 1250 ± 188 copies/cell in series [1] (setting [7]); 1300 ± 272 copies/cell in series [1] (setting [8]). Also, the entries for the “TGF-beta mRNA LEVELS” value in series [1] (setting [9]) and in series [1] (setting [10]) were 1190 ± 300 copies/cell and 1180 ± 130 copies/cell, respectively. Further, the “TGF-β1 mRNA levels, control versus treated fibroblasts” value in series [1] (varying concentrations of oestrogen, fibroblasts from all females regardless of age) was “No significant differences”. Moreover, the “TGF-beta LEVELS” value in series [2] (setting [3]) stood at 416 ± 80 pg/ml/10^5 cell/24 hr; in series [2] (setting [4]), 280 ± 60 pg/ml/10^5 cell/24 hr; in series [2] (setting [5]) it was 80 ± 50 pg/ml/10^5 cell/24 hr; in series [2] (setting [6]), 315 ± 47 pg/ml/10^5 cell/24 hr; in series [2] (setting [7]), 428 ± 58 pg/ml/10^5 cell/24 hr; in series [2] (setting [8]), 312 ± 30 pg/ml/10^5 cell/24 hr. Also, the figures for the “TGF-beta LEVELS” value in series [2] (setting [9]) and in series [2] (setting [10]) were 118 ± 24 pg/ml/10^5 cell/24 hr and 282 ± 22 pg/ml/10^5 cell/24 hr, respectively. Moreover, in series [2], the “active TGF-β1 (non-heat-activated samples)” value is “no increase”.

Consider `CC(=O)[C@H]1CC[C@H]2[C@@H]3CCC4=CC(=O)CC[C@]4(C)[C@H]3CC[C@]12C` [Progesterone, progesterone], for which the “TGF-beta mRNA LEVELS” value turned out to be 1300 ± 430 copies/cell in series [1] (setting [3]); 1000 ± 275 copies/cell in series [1] (setting [4]); 950 ± 210 copies/cell in series [1] (setting [5]); 1110 ± 290 copies/cell in series [1] (setting [6]); 1100 ± 310 copies/cell in series [1] (setting [7]); 1145 ± 206 copies/cell in series [1] (setting [8]). The “TGF-beta mRNA LEVELS” value is 1130 ± 254 copies/cell in series [1] (setting [9]) and 1090 ± 280 copies/cell in series [1] (setting [10]). Moreover, the “TGF-beta LEVELS” value came out at 33 ± 13 pg/ml/10^5 cell/24 hr in series [2] (setting [3]); 90 ± 38 pg/ml/10^5 cell/24 hr in series [2] (setting [4]); 32 ± 13 pg/ml/10^5 cell/24 hr in series [2] (setting [5]); 65 ± 15 pg/ml/10^5 cell/24 hr in series [2] (setting [6]); 82 ± 13 pg/ml/10^5 cell/24 hr in series [2] (setting [7]); 115 ± 20 pg/ml/10^5 cell/24 hr in series [2] (setting [8]). Moreover, the “TGF-beta LEVELS” value in series [2] (setting [9]) worked out at 70 ± 31 pg/ml/10^5 cell/24 hr; in series [2] (setting [10]) it was 96 ± 13 pg/ml/10^5 cell/24 hr. Further, the “FOLD INDUCTION of TGF-beta levels” value in series [2] (setting [3]) is 1; in series [2] (setting [4]), 2.6*; in series [2] (setting [5]), 1; in series [2] (setting [6]), 2*; in series [2] (setting [7]), 0.8; in series [2] (setting [8]), 1. Moreover, the “FOLD INDUCTION of TGF-beta levels” value came out at 0.6 in series [2] (setting [9]) and 1 in series [2] (setting [10]). In addition, the “active TGF-β1 (non-heat-activated samples)” value in series [2] is “no increase”. Also, in series [2] (nM and μM doses, fibroblasts from the aged subjects (2A or 2B)), the “increase in TGF-β1 levels” value is 2 fold. The “effect on TGF-β1 production compared to controls” value in series [2] (young fibroblasts (Group 2C)) is “no significant effect”.
